Consider ten compounds from patent US5532227A, “Tetracyclines including non-antimicrobial chemically-modified tetracyclines inhibit excessive glycosylation of different types of collagen and other proteins during diabetes” (The Research Foundation of State University of New York, priority 1994, dated 1996).

Assay [1] deals with collagenase. Put plainly: Collagenase activity in skin of diabetic rats (Example V, FIG. 8). To be noted: 5 mg daily oral gavage, 21 days; p<0.001 for normalization. In kind it is in vivo, Sprague-Dawley rat. How it is done: (§1) All animals were weighed weekly.
In particular, all dissection and extraction procedures were carried out at 4° C. unless otherwise indicated. For MMP analysis, the tissues were minced, weighed, extracted, and the extracts partially purified by ammonium sulfate precipitation using techniques described previously (Ramamurthy and Golub, J. Periodontal Res. 17, 455, (1983)). The extracts of the diseased tissue were then concentrated 5-fold and aliquots were incubated (a) with [^3 H-methyl] gelatin (denatured type I rat skin collagen ) at 37° C. for 4hours to measure gelatinase activity. The undigested gelatin was precipitated with trichloroacetic acid, and after centrifugation, aliquots of the degradation products in the supernatants were measured in a liquid scintillation spectrometer (in addition to this lysis assay, the different molecular forms of gelatinase were assessed by zymography); (b) with [^3 H-methyl] collagen for 18 hours at 27° C. and the collagen degradation fragments in the supernatants were analyzed with a liquid scintillation spectrometer to measure collagenase activity. In addition, the radiolabeled collagen components (α chains) and degradation fragments (α^A) were assessed by a combination of SDS-polyacrylamide gel electrophoresis and fluorography as described previously (Golub et al. J. Periodontal Res. 20, 12 (1985).

For assay [2], the system named is skin collagen. Put plainly: Glycosylation of diabetic rat skin collagen (Example V, Table IV). In kind it is in vivo, Sprague-Dawley rat. To be noted: 5 mg daily oral gavage, 21 days; for mM Fructosamine/mg protein (Mean ± SE): NDC 0.027, untreated diabetic 0.377; for Reduction of glycosylation in treated diabetics (%): vs untreated diabetic control. How it is done:
as §1
The subcutaneous muscle layer was removed leaving essentially the dermis. The dermis (skin connective tissue) samples were minced, then homogenized in phosphate buffered saline (4° C.). Following centrifugation (at 9000 rpm, 4° C., 30 min.) of the homogenates, the supernatants were discarded. The pellets were repeatedly washed, then resuspended and extracted at 4° C. overnight in chloroform/methanol to remove lipids. The de-lipidized tissue samples were then washed in 100% methanol, then in 50% methanol. Following the methanol washes, the samples were washed with HEPES buffer (pH 7.4). The skin connective tissue samples (100 mg of each sample) were incubated at 37° C. (24 hours) with chromatographically-purified bacterial collagenase. After 24 hours the reaction mixture was centrifuged at 7000 rpm, room temperature for 30 minutes. Following centrifugation, the supernatants containing the digested collagen were collected. Aliquots of the supernatants were analyzed for glycosylated collagen using a modification of the Isolab Glyco-PROBE™ GSP assay kit. The assay is designed to measure glucose bound to protein which was then converted by Amadori rearrangement to fructosamine. For purposes of the present invention, the sample total protein was increased to compensate for low levels of glycosylated collagen compared to glycosylated serum proteins.

The subject of assay [3] is skin collagen. Kind of assay: Glycosylation of skin collagen in diabetic rats, anthrone method (Example IV, FIG. 6). In kind it is in vivo, Sprague-Dawley rat. The following applies: 5 mg daily oral gavage, 21 days; effect p<0.05. As for the experimental part:
(§2) Sixteen adult male sprague-Dawley rats, each weighing approximately 350 grams, were divided into four groups 0f four animals per group.
In addition, the entire skin was dissected from each rat. Samples containing 100mg of each skin were suspended in a Tris-HCl buffer containing 5mM CaCl2 and chromatographically-purified bacterial collagenase and incubated at 37° C. for 4 hours. Following incubation all samples were centrifugated at 35,000×G and the supernatants containing the skin collagen fragments were collected. The skin digest supernatants were analyzed for (1) carbohydrate-attached-to-collagen by the anthrone method, as described by Halhoul and Kleinberg ([…]) Anal. Biochem. 50: 337-343 and (2) total protein using the BioRad Assay, BioRad Chemical Division, Richmond, Calif.

A further assay concerns gelatinase. Put plainly: Gelatinase activity in skin of diabetic rats (Example V, FIG. 9). In kind it is in vivo, Sprague-Dawley rat. The following applies: 5 mg daily oral gavage, 21 days; p<0.001 for normalization. How it is done:
as §1
In particular, all dissection and extraction procedures were carried out at 4° C. unless otherwise indicated. […] The extracts of the diseased tissue were then concentrated 5-fold and aliquots were incubated (a) with [^3 H-methyl] gelatin (denatured type I rat skin collagen ) at 37° C. for 4hours to measure gelatinase activity. The undigested gelatin was precipitated with trichloroacetic acid, and after centrifugation, aliquots of the degradation products in the supernatants were measured in a liquid scintillation spectrometer (in addition to this lysis assay, the different molecular forms of gelatinase were assessed by zymography); (b) with [^3 H-methyl] collagen for 18 hours at 27° C. and the collagen degradation fragments in the supernatants were analyzed with a liquid scintillation spectrometer to measure collagenase activity.

The next assay has as its system diabetic rats. To be noted: Golub et al. 1990; cited from earlier work.
For a further assay, the system named is serum protein. Put plainly: Glycosylated serum proteins in diabetic rats (Example IV, FIG. 5). To be noted: 5 mg daily oral gavage, 21 days; effect p<0.05. In kind it is in vivo, Sprague-Dawley rat.
Excerpt: (Control vs. Diabetic p<0.01, Diabetic vs. Diabetic treated with Doxycycline p<0.05, Diabetic vs. Diabetic treated with CMT-1 (4-dedimethyiaminotetracycline) p<0.05).
as §2

The test system of assay [4] is serum proteins. Put plainly: Serum fructosamine (glycosylated serum protein), 14 weeks doxycycline (Example II, Table III). In kind it is in vivo. The following applies: 2 mg/rat/day oral. How it is done: Three groups of rats were established: a non-diabetic control group, an untreated streptozotocin-diabetic group and a streptozotocin-diabetic group treated orally with 2 mg doxycycline/rat/day over the 14-week time period. At the end of the 14 weeks, blood samples were collected from each rat arid the serum was measured for glycosylated protein using an assay which is based on the ability of glucose to non-enzymatically bind to proteins by a ketoamine crosslink to form fructosamine. During the assay, the glucose bound to the protein through a ketoamine chemical bond reduces a tetrazolium dye under alkaline conditions producing a color change which is measured spectrophotometrically. Armbruster, Clin. Chem., 33: 2153-2163 (1987). A fructosamine assay kit is available from Isolab Inc., Akron, Ohio 44321.
In particular, the serum samples were centrifuged to remove lipids. The clarified serum samples were treated with a reagent to remove ascorbic acid and other interfering substances. The treated Serum samples were then incubated for a fixed period of time, with the fructosamine-bicarbonate reagent (tetrazolium salt), and absorbance was measured at a wavelength of 500 nm in a spectrophotometer. The data was analyzed statistically.

For assay [5] the following is noted: Wong et al. 1984, cited from earlier work.
In a further assay the test system is collagen. The following applies: diabetes in rats; Brownlee et al. 1986; cited from earlier work.
For assay [6] the following is noted: White, Lancet 1989; cited from earlier work.
The subject of assay [7] is streptozotocin-diabetic rats. Kind of assay: Other signs of diabetes (hyperglycemia, glucosuria, polyuria) in diabetic rats (Example III). In kind it is in vivo, rat. How it is done: (§3) Streptozotocin-diabetic rats were treated by the daily oral administration of 20 mg minocycline/rat/day over a 4-week period. At the end of the protocol, 24-hour urines were collected to measure protein excretion.

For assay [8], the system named is streptozotocin-diabetic rats. Kind of assay: Proteinuria: urine protein excretion in diabetic rats (Example III, FIG. 4). In kind it is in vivo, rat. To be noted: 4 weeks. How it is done:
Example III was carried out to determine the effect of tetracycline therapy on proteinuria, a parameter of renal damage, in diabetic rats.
as §3

The subject of assay [9] is collagenase. The following applies: in vitro (Golub, et al., 1991) and in vivo; cited from earlier work.
For assay [10], the system named is serum proteins. Put plainly: Glycosylated serum protein (GSP) in diabetic rats (Example V, FIG. 7). To be noted: 5 mg daily oral gavage, 21 days; vs untreated diabetics, p<0.005.
Procedure: Fifty-two adult male Sprague-Dawley rats were divided into eight groups, each consisting of 5-7 animals. Diabetes was induced by I.V. administration of streptozotocin in all rats, except the non-diabetic control group (7 rats). […] All animals were weighed weekly. Following general anesthesia by halothane inhalation, blood samples were collected by cardiac puncture. Blood samples were analyzed for serum glucose and glycosylated serum protein (GSP) levels. As previously mentioned, glycosylated serum protein levels were measured using the Isolab Glyco-PROBE™ GSP (glycosylated serum protein) assay kit.

As to `C[C@H]1c2cccc(O)c2C(O)=C2C(=O)[C@]3(O)C(O)=C(C(N)=O)C(=O)[C@@H](N(C)C)[C@@H]3[C@@H](O)[C@@H]21` [Doxycycline, reference compound], the “collagenase activity in the skin” value in the assay with collagenase [1] is recorded as “normalized”. In addition, in the assay with skin collagen [2], the “mM Fructosamine/mg protein (Mean ± SE)” value was 0.244 ± 0.050 mM Fructosamine/mg protein and the “Reduction of glycosylation in treated diabetics (%)” value (from here on “Reduction of glycosylation … (%)”) is listed as 35.3%. In addition, the “glycosylation of skin collagen” value in the assay with skin collagen [3] was “returned both of these parameters of abnormal glycosylation to essentially normal levels”. Besides, the “gelatinase activity in the skin” value in the assay with gelatinase is on record as “normalized”. Further, the severity of hyperglycemia result in the assay on diabetic rats is “does not reduce the severity of hyperglycemia in diabetic rats”. In the assay with serum protein, the “fructosamine attached to serum protein (glycosylated serum protein)” value is given as “returned both of these parameters of abnormal glycosylation to essentially normal levels”. Further, in the assay with serum proteins [4] (mean ± standard error, non-diabetic 1.33, untreated diabetics 3.82), the “Serum Fructosamine Concentration” value is recorded as 3.23 ± 0.20. Besides, in the assay on serum proteins [4] (vs untreated diabetics, p<0.05), the “fructosamine levels in the serum proteins” value is recorded as “significantly (p<0.05) reduced”.

In the case of `C[C@H]1c2cccc(O)c2C(O)=C2C(=O)[C@]3(O)C(O)=C(C(N)=O)C(=O)C[C@@H]3[C@@H](O)[C@@H]21` [CMT-8, 6α-deoxy-5-hydroxy-4-dedimethylaminodoxycycline], in the assay on skin collagen [2], the “mM Fructosamine/mg protein (Mean ± SE)” value is given as 0.118 ± 0.090 mM Fructosamine/mg protein and the “Reduction of glycosylation … (%)” value worked out at 68.7%.

Turning to `CC1(O)c2c(Cl)ccc(O)c2C(=O)C2=C(O)C3(O)C(=O)C(C(N)=O)=C(O)CC3CC21` (stereo not drawn) [CMT-4, 7-chloro-4-dedimethylaminotetracycline], in the assay on skin collagen [2], the “mM Fructosamine/mg protein (Mean ± SE)” value is listed as 0.236 ± 0.026 mM Fructosamine/mg protein and the “Reduction of glycosylation … (%)” value came to 37.4%.

Consider `CC(C)Cc1ccc(C(C)C(=O)O)cc1` (stereo not drawn) [ibuprofen], for which the “reduction of resulting inflammation in acne vulgaris” value in assay [5] (combination study with tetracycline) was “useful in reducing the resulting inflammation”.

As to `N=C(N)NN` [aminoguanidine], in the assay with collagen, the “inhibition of nonenzymatic glucose-derived collagen crosslinking” value is “effective inhibitor”.

Take `CN(C)c1ccc(O)c2c1C[C@H]1C[C@H]3[C@H](N(C)C)C(O)=C(C(N)=O)C(=O)[C@@]3(O)C(O)=C1C2=O` [Minocycline]: the “effectiveness in dystrophic epidermolysis bullosa” value in [6] is recorded as “effective in treating dystrophic epidermolysis bullosa”. Also, the “other signs of diabetes including hyperglycemia, glucosuria and polyuria” value in [7] is on record as “Neither treatment with minocycline nor CMT-1 reduced the other signs of diabetes”. The urine protein excretion in assay [8] (20 mg minocycline/rat/day oral, normal 48, untreated diabetics 280) was determined as 52 mg/24 hr. In [8] (20 mg/rat/day oral), the development of proteinuria result was “completely prevented the development of proteinuria”.

On to tetracycline pyrazole [CMT-5], for which the “collagenase activity in the skin” value with collagenase [1] was “normalized by all treatment groups (p<0.001) with the exception of CMT 5”. In addition, in the assay with skin collagen [2], the “mM Fructosamine/mg protein (Mean ± SE)” value is reported as 0.121 ± 0.050 mM Fructosamine/mg protein and the “Reduction of glycosylation … (%)” value worked out at 69.9%. In the assay on collagenase [9], the anticollagenase properties entry was “lost its anticollagenase properties”. Further, the “gelatinase activity in the skin” value in the assay on gelatinase is reported as “normalized by all treatment groups (p<0.001) with the exception of CMT 5”. For the same compound, the GSP levels result in the assay with serum proteins [10] was “substantially lower”.

For the compound `NC(=O)C1=C(O)C2(O)C(=O)C3=C(O)c4c(O)cccc4CC3CC2CC1=O` (stereo not drawn) [CMT-3, 6-demethyl-6-deoxy-4-dedimethylaminotetracycline], in the assay on skin collagen [2], the “mM Fructosamine/mg protein (Mean ± SE)” value is on record as 0.186 ± 0.048 mM Fructosamine/mg protein and the “Reduction of glycosylation … (%)” value is recorded as 50.7%.

For `CN(C)C1C(=O)C(C(N)=O)=C(O)C2(O)C(=O)C3=C(O)c4c(O)cccc4C(C)(O)C3CC12` (stereo not drawn) [tetracycline], in assay [5] (combination study with ibuprofen), the “effectiveness against acne vulgaris” value was “effective agent against acne vulgaris”.

`CC1(O)c2cccc(O)c2C(O)=C2C(=O)C3C(O)=C(C(N)=O)C(=O)CC3CC21` (stereo not drawn) [CMT-7, 12a-deoxy-4-deoxy-4-dedimethylaminotetracycline]: in the assay on skin collagen [2], the “mM Fructosamine/mg protein (Mean ± SE)” value is reported as 0.141 ± 0.086 mM Fructosamine/mg protein and the “Reduction of glycosylation … (%)” value is 62.6%.
